# Source: patent publication US20260274855A1, “AMORPHOUS FORM OF ISOQUINOLINE DERIVATIVE” (vTv Therapeutics LLC, priority 2020, published 2026)
# Where a name gives a salt, the structure may show the parent alone. Read-outs that look alike come from different tables or passages of the source.
# Columns and labels:
# Assay type in all cases: physicochemical
# [1] = Solubility in aqueous solutions at various pH's
# [2] = 3 month stability study at 25° C. ± 2° C. and 60% RH
# Description: A 3-month stability study was conducted at 25° C.±2° C. and 60% relative humidity.
# [3] = Dissolution studies, four-part dissolution test method of Chinese Pharmacopoeia (2015 edition)
# Description: Dissolution studies were conducted according to the four-part dissolution test method in the Chinese Pharmacopoeia (2015 edition) in the following solvents: methanol, acetic acid, ethanol, 0.1 mol/L HCl, acetonitrile, and 2-methyltetrahydrofuran. The dissolution study method involves weighing a fine powder (after grinding) of solid test product, attempting to dissolve in a proper volume of solvent by strongly shaking for 30 seconds every 5 minutes for 30 minutes, and recording observations after 30 minutes.
# [4] = 30-day stability study at 60° C.
# Description: A 30-day stability study at 60° C. was conducted on a sample of material obtained from the method of Example 3.
# [5] = Hygroscopicity study, DVS test (25° C., 80% RH)
# Description: Dynamic moisture adsorption (DVS) curves were collected on DVS Intrinsic of Surface Measurement Systems (SMS). The relative humidity at 25° C. was corrected with the deliquescent points of LiCl, Mg(NO3)2 and KCl.
# [6] = Stability study at 40° C. and 100% RH for 7 days
# Description: The stability of crystal form B of OAD2 hydrochloride and the amorphous form of OAD2 dihydrochloride was tested under conditions of 40° C./100% RH for 1 week.
# [7] = Month 0, listed as Ex. 3, dihydrochloride salt
# [8] = Month 0, listed as Ex. 4, dihydrochloride salt
# [9] = Month 0, listed as Ex. 5, dihydrochloride salt
# [10] = Month 1, listed as Ex. 3, dihydrochloride salt
# [11] = Month 1, listed as Ex. 4, dihydrochloride salt
# [12] = Month 1, listed as Ex. 5, dihydrochloride salt
# [13] = Month 2, listed as Ex. 3, dihydrochloride salt
# [14] = Month 2, listed as Ex. 4, dihydrochloride salt
# [15] = Month 2, listed as Ex. 5, dihydrochloride salt
# [16] = Month 3, listed as Ex. 3, dihydrochloride salt
# [17] = Month 3, listed as Ex. 4, dihydrochloride salt
# [18] = Month 3, listed as Ex. 5, dihydrochloride salt
smiles,measurement,setting,value
"CC[C@@H](c1ccccc1)N1Cc2cc3c(cc2C[C@H]1C(=O)N[C@@H](Cc1ccc(-c2ccnc(C)c2C)cc1)C(=O)O)OC[C@H](c1ccc(OCc2ccc(Cl)c(Cl)c2)cc1)O3 [OAD2 dihydrochloride, (S)-2-(3S,8S)-3-(4-(3,4-dichlorobenzyloxy)phenyl-7-((S)-1-phenylpropyl)-2,3,6,7,8,9-hexahydro-[1,4]-dioxino[2,3-g]isoquinolin-8-ylformylamino)-3-(4-(2,3-dimethylpyridin-4-yl)phenyl)propionic acid dihydrochloride salt]",solubility,[1]; Buffer pH 5,Not detectable
same,solubility,"[1]; aqueous solution, aqueous buffer, thermodynamic from solid, Buffer pH 7, read-out: Solubility",90 µg/mL
same,solubility,"[1]; aqueous solution, aqueous buffer, thermodynamic from solid, Buffer pH 9, read-out: Solubility",50 µg/mL
same,solubility,"[1]; aqueous solution, aqueous buffer, thermodynamic from solid, solvent 0.1 NaOH, read-out: Solubility",17 µg/mL
same,solubility,"[1]; aqueous solution, simulated gastric fluid, thermodynamic from solid, solvent 0.1 HCl, read-out: Solubility",> 51000 µg/mL
same,solubility,"[1]; solvent 0.1 HCl, listed as OAD2 dihydrochloride salt, dihydrochloride salt",>51000 µg/mL
same,Appearance,[2]; Month 0,Off-white
same,Solid form,[2]; Month 0,Amorphous
same,Moisture Content,[2]; [7],1.7%
same,Percentage of external standard content,[2]; [7],98.1%
same,Purity,[2]; [7],99.30%
same,Moisture Content,[2]; [8],2.5%
same,Percentage of external standard content,[2]; [8],97.1%
same,Purity,[2]; [8],98.7%
same,Moisture Content,[2]; [9],1.6%
same,Percentage of external standard content,[2]; [9],97.1%
same,Purity,[2]; [9],99.03%
same,Appearance,[2]; Month 1,Off-white
same,Solid form,[2]; Month 1,Amorphous
same,Moisture Content,[2]; [10],3.1%
same,Percentage of external standard content,[2]; [10],99.0%
same,Purity,[2]; [10],99.25%
same,Moisture Content,[2]; [11],4.7%
same,Percentage of external standard content,[2]; [11],96.8%
same,Purity,[2]; [11],98.6%
same,Moisture Content,[2]; [12],3.3%
same,Percentage of external standard content,[2]; [12],97.2%
same,Purity,[2]; [12],98.90%
same,Appearance,[2]; Month 2,Off-white
same,Solid form,[2]; Month 2,Amorphous
same,Moisture Content,[2]; [13],3.4%
same,Percentage of external standard content,[2]; [13],98.7%
same,Purity,[2]; [13],99.30%
same,Moisture Content,[2]; [14],3.6%
same,Percentage of external standard content,[2]; [14],97.6%
same,Purity,[2]; [14],98.6%
same,Moisture Content,[2]; [15],4.1%
same,Percentage of external standard content,[2]; [15],97.8%
same,Purity,[2]; [15],98.90%
same,Appearance,[2]; Month 3,Off-white
same,Solid form,[2]; Month 3,Amorphous
same,Moisture Content,[2]; [16],3.7%
same,Percentage of external standard content,[2]; [16],99.8%
same,Purity,[2]; [16],99.23%
same,Moisture Content,[2]; [17],4.8%
same,Percentage of external standard content,[2]; [17],98.2%
same,Purity,[2]; [17],98.5%
same,Moisture Content,[2]; [18],4.5%
same,Percentage of external standard content,[2]; [18],98.7%
same,Purity,[2]; [18],98.90%
same,Dissolution,"[3]; 0.1 mol/L HCl, about 1 g sample in 9.99 mL, after 30 minutes, listed as 3, dihydrochloride salt",Incomplete
same,Dissolution,"[3]; 0.1 mol/L HCl, about 1 g sample in 9.99 mL, after 30 minutes, listed as 4, dihydrochloride salt",Incomplete
same,Dissolution,"[3]; 0.1 mol/L HCl, about 1 g sample in 9.99 mL, after 30 minutes, listed as 5, dihydrochloride salt",Incomplete
same,Dissolution,"[3]; 0.1 mol/L HCl, about 1 g sample in 9.99 mL, after 30 minutes, listed as amorphous solid of OAD2 dihydrochloride salt, dihydrochloride salt",completely dissolved
same,Dissolution,"[3]; 0.1 mol/L HCl, about 1 g sample in 29.99 mL, after 30 minutes",Complete
same,Dissolution,"[3]; 2-methyl tetrahydrofuran, about 0.01 g sample in 101 mL, after 30 minutes, listed as 3, dihydrochloride salt",Incomplete
same,Dissolution,"[3]; 2-methyl tetrahydrofuran, about 0.01 g sample in 101 mL, after 30 minutes, listed as 4, dihydrochloride salt",Incomplete
same,Dissolution,"[3]; 2-methyl tetrahydrofuran, about 0.01 g sample in 101 mL, after 30 minutes, listed as 5, dihydrochloride salt",Incomplete
same,Dissolution,"[3]; 2-methyl tetrahydrofuran, about 0.01 g sample in 101 mL, after 30 minutes, listed as amorphous solid of OAD2 dihydrochloride salt, dihydrochloride salt",incompletely dissolved
same,Dissolution,"[3]; Acetonitrile, about 0.01 g sample in 101 mL, after 30 minutes, listed as 3, dihydrochloride salt",Incomplete
same,Dissolution,"[3]; Acetonitrile, about 0.01 g sample in 101 mL, after 30 minutes, listed as 4, dihydrochloride salt",Incomplete
same,Dissolution,"[3]; Acetonitrile, about 0.01 g sample in 101 mL, after 30 minutes, listed as 5, dihydrochloride salt",Incomplete
same,Dissolution,"[3]; Acetonitrile, about 0.01 g sample in 101 mL, after 30 minutes, listed as amorphous solid of OAD2 dihydrochloride salt, dihydrochloride salt",incompletely dissolved
same,Dissolution,"[3]; Ethanol, about 1 g sample in 9.99 mL, after 30 minutes, listed as 3, dihydrochloride salt",Incomplete
same,Dissolution,"[3]; Ethanol, about 1 g sample in 9.99 mL, after 30 minutes, listed as 4, dihydrochloride salt",Incomplete
same,Dissolution,"[3]; Ethanol, about 1 g sample in 9.99 mL, after 30 minutes, listed as 5, dihydrochloride salt",Incomplete
same,Dissolution,"[3]; Ethanol, about 1 g sample in 9.99 mL, after 30 minutes, listed as amorphous solid of OAD2 dihydrochloride salt, dihydrochloride salt",completely dissolved
same,Dissolution,"[3]; Ethanol, about 1 g sample in 29.99 mL, after 30 minutes",Complete
same,Dissolution,"[3]; Methanol, about 1 g sample in 9.99 mL, after 30 minutes, listed as 3, dihydrochloride salt",Complete
same,Dissolution,"[3]; Methanol, about 1 g sample in 9.99 mL, after 30 minutes, listed as 4, dihydrochloride salt",Complete
same,Dissolution,"[3]; Methanol, about 1 g sample in 9.99 mL, after 30 minutes, listed as 5, dihydrochloride salt",Complete
same,Dissolution,"[3]; Methanol, about 1 g sample in 9.99 mL, after 30 minutes, listed as amorphous solid of OAD2 dihydrochloride salt, dihydrochloride salt",completely dissolved
same,Dissolution,"[3]; acetic acid, about 10 mL of solvent",completely dissolved
same,Appearance,[4]; Day 0,Off-white
same,Moisture Content,[4]; Day 0,1.6%
same,Percentage of external standard content,[4]; Day 0,97.1%
same,Purity,[4]; Day 0,99.03%
same,Solid form,[4]; Day 0,Amorphous
same,Appearance,[4]; Day 5,Off-white
same,Moisture Content,[4]; Day 5,2.7%
same,Percentage of external standard content,[4]; Day 5,99.1%
same,Purity,[4]; Day 5,98.7%
same,Solid form,[4]; Day 5,Amorphous
same,Appearance,[4]; Day 10,Off-white
same,Moisture Content,[4]; Day 10,2.4%
same,Percentage of external standard content,[4]; Day 10,97.5%
same,Purity,[4]; Day 10,98.7%
same,Solid form,[4]; Day 10,Amorphous
same,Appearance,[4]; Day 30,Pale-yellow
same,Moisture Content,[4]; Day 30,2.5%
same,Percentage of external standard content,[4]; Day 30,97.4%
same,Purity,[4]; Day 30,97.7%
same,Solid form,[4]; Day 30,Amorphous
same,Moisture adsorption rate,[5],8.3%
same,Decrease in purity,[6]; 40° C./100% RH for 1 week,no distinct decrease in purity
same,HPLC (area %),[6]; 40° C./100% RH/7 d,97.51 area %
same,HPLC (area %),[6]; Initiation,98.91 area %
